Experimental data as given in publication PMC9376946, “Peptide-RNA Coacervates as a Cradle for the Evolution of Folded Domains” (Journal of the American Chemical Society, 2022).
Values joined by “and” are separate entries in the source; they are usually repeats but may differ in a detail not shown here. Equal entries are not always repeated.

Experiments:
PA dimer (PA2) = experiment: DEER of singly labeled peptides in solution (dimerization); assay type: binding
Method: Lyophilized, spin-labeled peptides were dissolved in Milli-Q water and centrifuged at 4000 rpm for 10 min to remove insoluble aggregates. The soluble fractions were used to prepare stock solutions of 250–500 μM peptide. Labeled peptide concentrations were determined by comparing the area under the curve of the EPR signal against that of standard solutions of 10–285 μM TEMPO. For the EPR measurements in D2O, 200 μL of the stock solution was lyophilized and re-dissolved in D2O. The concentration of the unlabeled peptide stock solutions was determined using the bicinchoninic acid assay (Thermo Fisher Scientific) and ranged from 0.8 to 1.2 mM peptide. […]
Pulse EPR measurements were carried out at the W band (94.9 GHz) on a home-built spectrometer at 25 K.[22]−[24] Echo intensities were measured with a Hahn echo sequence (π/2νobs – τ – πνobs – τ – echo) using π/2 and π pulses of 20–25 ns and 40–50 ns, respectively, and τ = 500 ns. Echo decays were measured under the same conditions with an initial τ value of 500 ns. DEER measurements were recorded using the four-pulse DEER sequence (π/2νobs – τ1 – πνobs – (τ1 + t) – πνpump – (τ2-t) – πνobs – τ2 – echo)[25],[26] with a chirp pump pulse[23] using eight-step phase cycling and monitoring the echo intensity as a function of increasing t. […]

polyU = experiment: CW-EPR of PA-12 in the presence of polyU (bound, slow-motion population); assay type: binding; details: spectral simulation
Method: Lyophilized, spin-labeled peptides were dissolved in Milli-Q water and centrifuged at 4000 rpm for 10 min to remove insoluble aggregates. The soluble fractions were used to prepare stock solutions of 250–500 μM peptide. Labeled peptide concentrations were determined by comparing the area under the curve of the EPR signal against that of standard solutions of 10–285 μM TEMPO. For the EPR measurements in D2O, 200 μL of the stock solution was lyophilized and re-dissolved in D2O. The concentration of the unlabeled peptide stock solutions was determined using the bicinchoninic acid assay (Thermo Fisher Scientific) and ranged from 0.8 to 1.2 mM peptide. A stock solution of 500 mM MES, pH 5.6 was used to adjust all samples to a final concentration of 50 mM MES, pH 5.6. Aliquots of 10 mg/mL polyuridylic acid (polyU; Sigma Aldrich) were prepared in Milli-Q water and diluted as necessary. For CW-EPR measurements, a quartz capillary of 0.6 mm i.d. and 0.84 mm o.d. was filled with 7–8 μL of the sample and sealed with Critoseal (Fisherbrand, Fisher Scientific) at one end. A single capillary was placed in an X-band EPR tube of 2 mm i.d. and 2.4 mm o.d. for measurements, except for spin concentration below 50 μM, where two capillaries were used.
Each sample was freshly prepared and the time to collect […] CW-EPR data was 30–40 min.
CW-EPR spectra were recorded on an Elexsys E500 X-Band (9.5 GHz) Bruker spectrometer using a high sensitivity resonator at room temperature. The following parameters were used: 0.1 mT field modulation amplitude, a 15 mT scan range, and 20 mW microwave power. Each scan was 42 s and at least 9 scans were accumulated for each data set. For samples with a high concentration of polyU or a low concentration of labeled peptide, at least 25–36 scans were collected to improve the signal to noise (S/N) ratio. Simulations of the spectra were performed using the “Chili” routine of EasySpin (www.easyspin.org).[21]
After characterizing the dynamic and structural properties of PA in solution, we proceeded to explore these properties upon interaction with the homopolymeric RNA molecule polyU. […] PA-12, like the unlabeled peptide, produced coacervates.[17] […] Using CW-EPR, binding of PA to RNA can be tracked through spin label dynamics. We initially kept the concentration of PA-12 constant at 150 μM and varied the amount of polyU. The CW-EPR spectra in Figure 3B indicate superposition of two populations, I and II. […] The relative intensity of II increases with the amount of polyU added, indicating binding of PA-12 to polyU. The percentage of II increased from 32% at 0.1 mg/mL polyU to 93% at 1 mg/mL polyU. Increasing to 2 mg/mL polyU and reducing the PA-12 concentration to 100 μM increased the population of II to 95% (Figures 3B and S15G). Such restricted motion and dynamic components have also been reported for proteins undergoing phase separation.[38],[39]

For “RIRRASVEELTCVPGIGPRLARRILERLA [PA-12, Precursor-Arg peptide in which position 12 has been modified with a cysteine and attached to an M-TEMPO spin label]”, the “DEER modulation depth (Δ)” value (PA dimer (PA2); 30 μM, without polyU) was 2%, the “inter-monomer distances upon spin dilution” value (PA dimer (PA2); about 10% spin-labeled peptide, 200 μM total PA) was “inter-monomer distances practically disappear” and the “population I (fast motion)” value (polyU; 30 μM PA-12, 1 mg/mL polyU) was 40 ± 5% and 40%. The “population II (slow motion, polyU-bound)” value (polyU; 30 μM PA-12, 1 mg/mL polyU) was 60 ± 5% and 60%, the “population I (fast motion)” value (polyU; 50 μM PA-12, 1 mg/mL polyU) was 25 ± 5% and the “population II (slow motion, polyU-bound)” value (polyU; 50 μM PA-12, 1 mg/mL polyU) was 75 ± 5%. The “population I (fast motion)” value (polyU; 100 μM PA-12, 1 mg/mL polyU) was 10 ± 4%, the “population II (slow motion, polyU-bound)” value (polyU; 100 μM PA-12, 1 mg/mL polyU) was 90 ± 4% and the “population II (slow motion, polyU-bound)” value (polyU; 100 μM PA-12, 2 mg/mL polyU, 50 mM MES pH 5.6, room temperature) was 95%. The “population II (slow motion, polyU-bound)” value (polyU; 150 μM PA-12, 0.1 mg/mL polyU, 50 mM MES pH 5.6, room temperature) was 32%, the “population II (slow motion, polyU-bound)” value (polyU; 150 μM PA-12, 1 mg/mL polyU, 50 mM MES pH 5.6, room temperature) was 93 ± 2% and 93% and the “population I (fast motion)” value (polyU; 150 μM PA-12, 1 mg/mL polyU) was 7 ± 2%. The “population I (fast motion)” value (polyU; 200 μM PA-12, 1 mg/mL polyU) was 4 ± 2% and the “population II (slow motion, polyU-bound)” value (polyU; 200 μM PA-12, 1 mg/mL polyU) was 96 ± 2% and 96%.
